In PMC12466513, “Okanin Attenuates Mitochondrial Dysfunction and Apoptosis in UVA-Induced HaCaT Cells by Mitophagy Through SIRT3 Pathway” (Antioxidants, 2025) one finds Kd and DARTS protection data, which are given here for one molecule.

In general, Kd refers to the free concentration of one partner at which half of the binding sites on the other are occupied at equilibrium, for simple one-to-one binding. A lower Kd goes with higher affinity.

In assay [1] the target is T1, SIRT3 (Homo sapiens, UniProt Q9NTG7).
T1 sequence (Q9NTG7 102-399): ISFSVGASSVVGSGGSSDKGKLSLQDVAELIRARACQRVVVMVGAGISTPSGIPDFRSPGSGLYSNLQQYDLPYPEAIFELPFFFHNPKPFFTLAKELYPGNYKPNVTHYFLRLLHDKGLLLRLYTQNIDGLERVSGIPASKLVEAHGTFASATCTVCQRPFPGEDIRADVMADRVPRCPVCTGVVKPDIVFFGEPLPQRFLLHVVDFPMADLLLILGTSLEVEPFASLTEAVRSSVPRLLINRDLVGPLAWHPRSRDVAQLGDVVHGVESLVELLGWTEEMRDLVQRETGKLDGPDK
Nature of the assay: surface plasmon resonance. Format: binding. Further details: SIRT3 protein used for SPR; PDB 4JT8 was only the docking model. In general terms: SPR reads the build-up and loss of mass on a sensor chip optically.

Assay [2] has as its target T1, SIRT3. Nature of the assay: DARTS (pronase digestion, blot). It counts as biochemical. Also noted: detected by blot. The settings on record: protein lysate.

`O=C(/C=C/c1ccc(O)c(O)c1)c1ccc(O)c(O)c1O` [okanin]: the affinity on SIRT3 [1], expressed as Kd, was 4.98 µM. The DARTS protection entry on SIRT3 [2] is on record as “okanin treatment significantly enhanced SIRT3 resistance to pronase digestion in protein lysates”.
